Assay results taken from patent publication US20240246908A1 (ORION CORPORATION, priority 2021, published 2024).

Test system: YAP-TEAD
Test: TEAD inhibition, Hippo Pathway TEAD Reporter MCF-7 luciferase assay
Assay type: cell-based
Conditions: Homo sapiens, MCF7, 24 h, Hippo Pathway TEAD Reporter MCF-7 cells, luciferase activity after 24 h; read-out: IC50 of the test compounds on YAP-TEAD inhibition (Group)
Outline: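 MCF-7 cells carrying a TEAD-responsive firefly luciferase reporter, with nuclear YAP1 driving constitutive expression, were treated the day after plating with compounds (11 concentrations, 4 replicates; 0.1% DMSO control). After 24 h, luciferase was read by ONE-Glo luminescence and IC50 determined.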

| SMILES | IC50 [nM] |
| --- | --- |
| CN1C(=O)CCC1C(=O)Nc1cc(OCc2ccc(F)c(F)c2)cc2c1OCC2 (centres unmarked) [Compound 248, N-(5-((3,4-Difluorobenzyl)oxy)-2,3-dihydrobenzofuran-7-yl)-1-methyl-5-oxopyrrolidine-2-carboxamide] | < 50 |
| COc1ccc(Oc2cc(F)cc(F)c2)cc1NC(=O)C1CCC(=O)N1C(C)=O (centres unmarked) [Compound 77, 1-Acetyl-N-(5-(3,5-difluorophenoxy)-2-methoxyphenyl)-5-oxopyrrolidine-2-carboxamide] | 50 to 300 |
| COc1ccc(Oc2ccc(C(F)(F)F)cc2)cc1NC(=O)[C@]1(C)CCC(=O)N1C [Compound 135, (S)—N-(2-Methoxy-5-(4-(trifluoromethyl)phenoxy)phenyl)-1,2-dimethyl-5-oxo-pyrrolidine-2-carboxamide] | 50 to 300 |
| COc1ccc(COc2cccc(F)c2)cc1NC(=O)[C@H]1NC(=O)C[C@@H]1C (racemic) [Compound 6, rac-(trans)-N-(5-((3-Fluorophenoxy)methyl)-2-methoxyphenyl)-3-methyl-5-oxopyrrolidine-2-carboxamide] | 301 to 2000 |
| CN1C(=O)NC[C@H]1C(=O)Nc1cc(Oc2ccc(C(F)(F)F)cn2)c(F)cc1F [Compound 361, (S)—N-(2,4-Difluoro-5-((5-(trifluoromethyl)pyridin-2-yl)oxy)phenyl)-3-methyl-2-oxoimidazolidine-4-carboxamide] | < 50 |
| COc1cc(F)c(Oc2ccc(C(F)(F)F)cn2)cc1NC(=O)[C@H]1CNC(=O)N1C [Compound 155, (R)—N-(4-Fluoro-2-methoxy-5-((5-(trifluoromethyl)pyridin-2-yl)oxy)phenyl)-3-methyl-2-oxoimidazolidine-4-carboxamide] | 50 to 300 |
| COc1cc(F)c(Oc2ccc(C(F)(F)F)cn2)cc1NC(=O)C1CNC(=O)N1C (centres unmarked) [Compound 153, N-(4-Fluoro-2-methoxy-5-((5-(trifluoromethyl)pyridin-2-yl)oxy)phenyl)-3-methyl-2-oxoimidazolidine-4-carboxamide] | < 50 |
| COc1ccc(OC2CCC(C(F)(F)F)CC2)cc1NC(=O)C1CCC(=O)N1C (centres unmarked) [Compound 255, N-(2-Methoxy-5-((4-(trifluoromethyl)cyclohexyl)oxy)phenyl)-1-methyl-5-oxo-pyrrolidine-2-carboxamide] | < 50 |
| COc1ccc(Cc2ccc(C(F)(F)F)cc2)cc1NC(=O)C1CCC(=O)N1C (centres unmarked) [Compound 257, N-(2-Methoxy-5-(4-(trifluoromethyl)benzyl)phenyl)-1-methyl-5-oxopyrrolidine-2-carboxamide] | 50 to 300 |
| COc1ccc(Oc2ccc(C(F)(F)F)cc2)cc1NC(=O)[C@@H]1CN(C)C(=O)N1C [Compound 226, (S)—N-(2-Methoxy-5-(4-(trifluoromethyl)phenoxy)phenyl)-1,3-dimethyl-2-oxoimidazolidine-4-carboxamide] | < 50 |
| COc1ccc(Oc2ccc(C(F)(F)F)cc2)cc1NC(=O)[C@@]1(C)CCC(=O)N1C [Compound 134, (R)—N-(2-methoxy-5-(4-(trifluoromethyl)phenoxy)phenyl)-1,2-dimethyl-5-oxopyrrolidine-2-carboxamide] | < 50 |
| COc1ccc(NC(=O)C2CCC(=O)N2C)cc1O[C@H]1CC[C@H](C(F)(F)F)CC1 (stereo partly drawn) [Compound 271, (R)—N-(4-methoxy-3-(((1r,4R)-4-(trifluoromethyl)cyclohexyl)oxy)phenyl)-1-methyl-5-oxopyrrolidine-2-carboxamide] | 50 to 300 |
| CN1C(=O)NCC1C(=O)Nc1cc(Oc2ccc(C(F)(F)F)cn2)cc2c1OCO2 (centres unmarked) [Compound 178, 3-Methyl-2-oxo-N-(6-((5-(trifluoromethyl)pyridin-2-yl)oxy)benzo[d]-[1,3]dioxol-4-yl)imidazolidine-4-carboxamide] | < 50 |
| CN1C(=O)CCC1C(=O)Nc1cc(Oc2ccc(C(F)(F)F)cc2)ccc1C(N)=O (centres unmarked) [Compound 330, N-(2-Carbamoyl-5-(4-(trifluoromethyl)phenoxy)phenyl)-1-methyl-5-oxopyrrolidine-2-carboxamide] | 301 to 2000 |
| COc1ccc(Oc2ccc(C(F)(F)F)cc2)cc1NC(=O)C1CCC(=S)N1C (centres unmarked) [Compound 91, N-(2-Methoxy-5-(4-(trifluoromethyl)phenoxy)phenyl)-1-methyl-5-thioxo-pyrrolidine-2-carboxamide] | < 50 |
| CN1C(=O)CCC1C(=O)Nc1cc(C#N)cc(Oc2ccc(C(F)(F)F)cc2)c1 (centres unmarked) [Compound 306, N-(3-Cyano-5-(4-(trifluoromethyl)phenoxy)phenyl)-1-methyl-5-oxopyrrolidine-2-carboxamide] | 301 to 2000 |
| COCC(=O)N1CCC[C@H]1C(=O)Nc1cc(Oc2ccc(C(F)(F)F)cc2)ccc1OC [Compound 336, (S)—N-(2-Methoxy-5-(4-(trifluoromethyl)phenoxy)phenyl)-1-(2-methoxyacetyl)-pyrrolidine-2-carboxamide] | 50 to 300 |
| COc1ccc(Oc2ncc(C(F)(F)F)cc2F)cc1NC(=O)[C@@H]1CN(C)C(=O)N1C [Compound 359, (S)—N-(5-((3-Fluoro-5-(trifluoromethyl)pyridin-2-yl)oxy)-2-methoxyphenyl)-1,3-dimethyl-2-oxoimidazolidine-4-carboxamide] | 50 to 300 |
| COc1ccc(Oc2ccc(Cl)c(Cl)c2)cc1NC(=O)C1CCC(=O)N1C (centres unmarked) [Compound 222, N-(5-(3,4-Dichlorophenoxy)-2-methoxyphenyl)-1-methyl-5-oxopyrrolidine-2-carboxamide] | < 50 |
| CN1C(=O)OC[C@H]1C(=O)Nc1cc(Oc2ccc(C(F)(F)F)cn2)ccc1F [Compound 199, (S)—N-(2-Fluoro-5-((5-(trifluoromethyl)pyridin-2-yl)oxy)phenyl)-3-methyl-2-oxooxazolidine-4-carboxamide] | 301 to 2000 |
| COc1ccc(Oc2ccc(Cl)c(F)c2)cc1NC(=O)[C@@H]1CCC(=O)N1C [Compound 312, (S)—N-(5-(4-Chloro-3-fluorophenoxy)-2-methoxyphenyl)-1-methyl-5-oxo-pyrrolidine-2-carboxamide] | < 50 |
| COc1cc(F)c(Oc2cccc(C(F)(F)F)c2)cc1NC(=O)C1CCC(=O)N1C(C)=O (centres unmarked) [Compound 39, 1-Acetyl-N-(4-fluoro-2-methoxy-5-(3-(trifluoromethyl)phenoxy)phenyl)-5-oxopyrrolidine-2-carboxamide] | 50 to 300 |
| CN1C(=O)NC[C@H]1C(=O)Nc1cc(F)cc(Oc2ccc(C(F)(F)F)cn2)c1 [Compound 362, (S)—N-(3-Fluoro-5-((5-(trifluoromethyl)pyridin-2-yl)oxy)phenyl)-3-methyl-2-oxoimidazolidine-4-carboxamide] | < 50 |
| COc1ccc(Oc2ccc(F)cc2F)cc1NC(=O)C1CCC(=O)N1 (centres unmarked) [Compound 42, N-(5-(2,4-Difluorophenoxy)-2-methoxyphenyl)-5-oxopyrrolidine-2-carboxamide] | 50 to 300 |
| COc1ccc(Cc2cccc(C(F)(F)F)c2)cc1NC(=O)C1CCC(=O)N1C (centres unmarked) [Compound 256, N-(2-Methoxy-5-(3-(trifluoromethyl)benzyl)phenyl)-1-methyl-5-oxopyrrolidine-2-carboxamide] | 50 to 300 |
| CN1C(=O)NCC1C(=O)Nc1cc(Oc2ccc(C(F)(F)F)cn2)cc2cn[nH]c12 (centres unmarked) [Compound 193, 3-Methyl-2-oxo-N-(5-((5-(trifluoromethyl)pyridin-2-yl)oxy)-1H-indazol-7-yl)-imidazolidine-4-carboxamide] | 301 to 2000 |
